Series [1] in a line: thermodynamic stability of polymorphs (DSC comparison). In kind it is physicochemical. As for the experimental part: Pipindoxifene hydrochloride monohydrate can also exist as form I polymorph. Sample data for certain physical properties are compared for form I and form II polymorphs below in Table 2.
DSC measurements were carried out in both sealed pan and vented pan at a scan rate of 10° C./min from 25° C. to 200° C. under nitrogen purge using a Pyris I DSC from Perkin-Elmer.

Series [2] concerns tamoxifen-resistent MCF-7 breast cancer xenografts. The note with it: recent preclinical studies; cited from earlier work.
Series [3] relates to tamoxifen-sensitive cells lines. The note with it: other studies; cited from earlier work.
Series [4] concerns uterus. The note with it: tissue selective estrogenic effects; cited from earlier work.

Each structure is given as a SMILES string. Read-outs that look alike come from different tables or passages of the source.

Regarding `Cc1c(-c2ccc(O)cc2)n(Cc2ccc(OCCN3CCCCC3)cc2)c2ccc(O)cc12.Cl` [form II, pipindoxifene hydrochloride monohydrate], the “thermodynamic stability of crystalline polymorph” value in series [1] is “Less thermodynamically stable”.
Turning to `Cc1c(-c2ccc(O)cc2)n(Cc2ccc(OCCN3CCCCC3)cc2)c2ccc(O)cc12.Cl` [Form I, pipindoxifene hydrochloride monohydrate], the “thermodynamic stability of crystalline polymorph” value in series [1] (form I versus form II, from Table 2 DSC data, hydrochloride monohydrate) was “thermodynamically more stable than form II”.
With `Cc1c(-c2ccc(O)cc2)n(Cc2ccc(OCCN3CCCCC3)cc2)c2ccc(O)cc12.Cl` [pipindoxifene, 2-(4-hydroxyphenyl)-3-methyl-1-[4-(2-piperidin-1-ylethoxy)-benzyl]-1H-indol-5-ol hydrochloride], in series [2], the “growth of tamoxifen-resistant MCF-7 breast cancer xenografts” value is listed as “inhibited the growth”. For the same compound, in series [3], the “effectiveness in tamoxifen-sensitive cell lines” value is listed as “effectiveness”. In addition, the uterotropic activity result in series [4] is on record as “little or no uterotropic activity”.

The values above are taken from patent publication US20060030711A1 (priority 2004, published 2006).
